According to US4250170A, “Antibacterial agents Bu-2349A and B and method of using same” (Bristol-Myers Company, priority 1979, dated 1981):
In brackets after ≈: the same amount, converted by molar mass. Read-outs that look alike come from different tables or passages of the source.

How the values were obtained:
[1] = tested on: Neisseria gonorrhoeae (Ng-1); assay: MIC, two-fold agar dilution; type: cell-based; conditions: 18 h, Table 3, GC agar, 10^-2 dilution
[2] = tested on: Veillonella parvula ATCC 17745 (Vp-1); assay: MIC against anaerobic bacteria; type: cell-based; conditions: ATCC17745, 18 h, Table 4, GAM Medium, pH 7
[3] = tested on: Fusobacterium varium ATCC 8501 (Fv-1); assay: MIC against anaerobic bacteria; type: cell-based; conditions: ATCC8501, 18 h, Table 4, GAM Medium, pH 7
[4] = tested on: Escherichia coli (Ec-72), ANT(2"); assay: MIC, two-fold agar dilution; type: cell-based; conditions: 18 h, Table 3, Mueller-Hinton agar, 10^-4 dilution, enzyme ANT(2")
[5] = tested on: Acidoaminococcus fermentans ATCC 25085 (Ae-1); assay: MIC against anaerobic bacteria; type: cell-based; conditions: 18 h; Table 4; GAM Medium, pH 7
[6] = tested on: S. aureus (Sa-63); assay: MIC, agar dilution; type: cell-based; conditions: Staphylococcus aureus, 18 h
Protocol: (§1) The minimum inhibitory concentrations (MIC) of Bu-2349A and B were determined against a wide variety of bacteria by the two-fold agar dilution method. Mueller-Hinton agar medium was generally used for the determination of bacterial MIC except for species of Streptococcus, Neisseria and Hemophilus for which Gonococcus agar medium (GC agar, Nissui Co., Tokyo) was used. Gifu anaerobe agar medium (GAM agar, Eiken Co., Tokyo) was used for anaerobic bacteria. The MIC's were determined after overnight incubation at 37° C. with an initial inoculum equivalent to a 10^-4 dilution of an 18-hour culture for the aerobic and anaerobic bacteria, except for Streptococcus, Neisseria and Hemophilus for which a 10^-2 dilution was used.
(§2) The influence of inoculum size on MIC was tested on Mueller-Hinton agar using an inoculum of […], 10^-2 or 10^-4 dilution of the overnight culture of test organisms.
(§3) The effect of media pH on the MIC's of Bu-2349A was determined at three pH levels (6, 7 and 8) using Mueller-Hinton agar.
(§4) The media effect on the MIC's of Bu-2349A was tested using four kinds of assay media: Mueller-Hinton agar (MHA), nutrient agar (NA), heart infusion agar (HIA) and brain heart infusion agar (BHIA). The pH was adjusted at 7 and a 10^-4 dilution of overnight culture was used for the inoculum.

[7] = tested on: P. vulgaris (Pv-3); assay: MIC, agar dilution; type: cell-based; conditions: Proteus vulgaris, 18 h
Protocol: as §1, §2, §3, §4

[8] = tested on: Neisseria meningitidis (Nm-1); assay: MIC, two-fold agar dilution; type: cell-based; conditions: 18 h, Table 3, GC agar, 10^-2 dilution
[9] = tested on: Staphylococcus aureus Terajima (Sa-33); assay: MIC, two-fold agar dilution; type: cell-based; conditions: 18 h, Table 3, Mueller-Hinton agar, 10^-4 dilution
[10] = tested on: K. pneumoniae A9977; assay: experimental infections in mice; type: in vivo; conditions: Klebsiella pneumoniae, A9977, 120 h, im, 100 X LD50 ip challenge, 5 days, read-out: PD50 (median protective dose)
Protocol: (§5) The in vivo antibacterial activity of Bu-2349A was determined by experimental infections in mice. Mice were challenged via the intraperitoneal route with a 100 X LD50 dose of the pathogens in a 5% suspension of hog gastric mucin (American Laboratories, Omaha, Neb.). Bu-2349A was administered by the intramuscular route immediately after the bacterial challenge.

[11] = tested on: S. aureus Smith; assay: experimental infections in mice; type: in vivo; conditions: Staphylococcus aureus, 120 h, im, 100 X LD50 ip challenge, 5 days, read-out: PD50 (median protective dose)
Protocol: as §5

[12] = tested on: S. pneumoniae A20759; assay: experimental infections in mice; type: in vivo; conditions: im
Protocol: as §5

[13] = tested on: E. coli Juhl; assay: experimental infections in mice; type: in vivo; conditions: Escherichia coli, 120 h, im, 100 X LD50 ip challenge, 5 days, read-out: PD50 (median protective dose)
Protocol: as §5

[14] = tested on: P. vulgaris A9436; assay: experimental infections in mice; type: in vivo; conditions: Proteus vulgaris, A9436, 120 h, im, 100 X LD50 ip challenge, 5 days, read-out: PD50 (median protective dose)
Protocol: as §5

[15] = tested on: P. mirabilis A9554; assay: experimental infections in mice; type: in vivo; conditions: Proteus mirabilis, A9554, 120 h, im, 100 X LD50 ip challenge, 5 days, read-out: PD50 (median protective dose)
Protocol: as §5

[16] = tested on: anaerobic organisms; assay: in vitro activity against anaerobic bacteria, overall statement; type: cell-based; conditions: most of the anaerobic organisms tested
[17] = tested on: gram-positive and gram-negative bacteria; assay: in vitro antibacterial activity, overall statements; type: cell-based
Protocol: as §1, §2, §3, §4

[18] = tested on: Staphylococcus aureus (Sa-77), ANT(4'); assay: MIC, two-fold agar dilution; type: cell-based; conditions: 18 h
[19] = tested on: Sphaerophorus necrophorus (Sn-1); assay: MIC against anaerobic bacteria; type: cell-based; conditions: Fusobacterium necrophorum, 18 h; Table 4; GAM Medium, pH 7
[20] = tested on: Klebsiella pneumoniae (Kp-33), AAC(3)-3; assay: MIC, two-fold agar dilution; type: cell-based; conditions: 18 h, Table 3, Mueller-Hinton agar, 10^-4 dilution, enzyme AAC(3)-3
[21] = tested on: Hemophylus influenzae (He-2); assay: MIC, two-fold agar dilution; type: cell-based; conditions: 18 h; Table 3; GC agar, 10^-2 dilution
[22] = pH 6, Table 6, Mueller-Hinton Agar, 10^-4 dilution, pH 6, read-out: MIC
[23] = pH 7, Table 5, Mueller-Hinton Agar, pH 7, inoculum 10^-2 dil., read-out: MIC
[24] = pH 7, Table 5, Mueller-Hinton Agar, pH 7, inoculum 10^-4 dil., read-out: MIC
[25] = pH 7, Table 6, Mueller-Hinton Agar, 10^-4 dilution, pH 7, read-out: MIC
[26] = pH 7, Table 7, pH 7, 10^-4 dilution, BHIA, read-out: MIC
[27] = pH 7, Table 7, pH 7, 10^-4 dilution, HIA, read-out: MIC
[28] = pH 7, Table 7, pH 7, 10^-4 dilution, MHA, read-out: MIC
[29] = pH 7, Table 7, pH 7, 10^-4 dilution, NA, read-out: MIC
[30] = pH 8, Table 6, Mueller-Hinton Agar, 10^-4 dilution, pH 8, read-out: MIC

## C=C1OC(OC2C(CO)OC(Oc3ccc(C(=O)NCCCNCCCCNCCCCN)cc3)C2O)C(O)C(OC2OC(CO)C(OC3OC(C)C(N)C(O)C3NC(=O)C(C)N)C(O)C2O)C1O (stereo not drawn) [Bu-2349A]
[1]
  MIC: > 100 µg/mL
[2]
  MIC: > 100 µg/mL
[3]
  MIC: > 100 µg/mL
[4]
  MIC: 1.6 µg/mL (≈ 1.62 µM)
[5]
  MIC: 50 µg/mL (≈ 50.5 µM)
[6]; [22]
  MIC: > 50 µg/mL
[6]; pH 7
  MIC: 12.5 µg/mL (≈ 12.6 µM)
[6]; [23]
  MIC: 6.3 µg/mL (≈ 6.36 µM)
[6]; [24]
  MIC: 6.3 µg/mL (≈ 6.36 µM)
[6]; [25]
  MIC: 6.3 µg/mL (≈ 6.36 µM)
[6]; [26]
  MIC: 6.3 µg/mL (≈ 6.36 µM)
[6]; [27]
  MIC: 3.1 µg/mL (≈ 3.13 µM)
[6]; [28]
  MIC: 6.3 µg/mL (≈ 6.36 µM)
[6]; [29]
  MIC: 6.3 µg/mL (≈ 6.36 µM)
[6]; [30]
  MIC: 3.1 µg/mL (≈ 3.13 µM)
[7]; [22]
  MIC: > 50 µg/mL
[7]; pH 7
  MIC: 12.5 µg/mL (≈ 12.6 µM)
[7]; [23]
  MIC: 6.3 µg/mL (≈ 6.36 µM)
[7]; [24]
  MIC: 6.3 µg/mL (≈ 6.36 µM)
[7]; [25]
  MIC: 6.3 µg/mL (≈ 6.36 µM)
[7]; [26]
  MIC: 3.1 µg/mL (≈ 3.13 µM)
[7]; [27]
  MIC: 1.6 µg/mL (≈ 1.62 µM)
[7]; [28]
  MIC: 3.1 µg/mL (≈ 3.13 µM)
[7]; [29]
  MIC: 1.6 µg/mL (≈ 1.62 µM)
[7]; [30]
  MIC: 6.3 µg/mL (≈ 6.36 µM)
[8]
  MIC: > 100 µg/mL
[9]
  MIC: 1.6 µg/mL (≈ 1.62 µM)
[10]
  ED50: 7.2 mg/kg
[11]
  ED50: 3.2 mg/kg
[12]; Streptococcus pneumoniae, A20759, 120 h, 100 X LD50 ip challenge, 5 days, read-out: PD50 (median protective dose)
  ED50: > 100 mg/kg
[12]
  activity against the S. pneumoniae infection: inactive
[13]
  ED50: 5.4 mg/kg
[14]
  ED50: 12 mg/kg
[15]
  ED50: 16 mg/kg
[16]
  activity against anaerobic organisms: inactive
[17]; Mueller-Hinton agar, 10^0, 10^-2 or 10^-4 dilution
  effect of inoculum size on antibiotic activity: no significant effect
[17]; NA and HIA compared with MHA or BHIA, pH 7
  effect of medium on activity: higher activity in NA and HIA than in MHA or BHIA
[17]; gram-positive and gram-negative bacteria, including aminoglycoside-resistant bacteria, summary statement
  inhibitory activity both in vitro and in vivo: marked inhibitory activity
[17]; including bacteria which produce aminoglycoside-modifying enzymes
  antibacterial activity: active
[17]; pH 6 compared with pH 7
  effect of pH 6 on activity: much reduced activity
[17]; pH 8 compared with pH 7
  effect of pH 8 on activity: approximately twice as active
[18]
  MIC: 12.5 µg/mL (≈ 12.6 µM)
[19]
  MIC: > 100 µg/mL
[20]
  MIC: 3.1 µg/mL (≈ 3.13 µM)
[21]
  MIC: > 100 µg/mL
